Measurements published in patent US8916212B2, “Skin whitening composition containing chia seed extract” (Access Business Group International LLC, priority 2011, dated 2014).

Legend:
melan-a cells = experiment: WST-1 assay for cell viability and cytotoxicity; assay type: cell-based, murine; conditions: at the concentrations tested
Procedure: (§1) Melan-a murine melanocytes (Wellcome Trust Functional Genomics Cell Bank, St. George Hospital, London, UK) were plated one day prior to treatment in 24 well plates at a density of 5×10^4 cells per well in 1 ml of melan-a cell medium (RPMI-1640, 10% Fetal Bovine Serum (FBS), 1% Penicillin/Streptomycin, 100 μM β-mercaptoethanol, 2 mM L-Glutamine and 200 nM Phorbol 12-myristate 13-acetate) in a 10% CO2 incubator maintained at 37° C. After seeding the cells for 24 hours in triplicate, cells were treated as indicated below. After two days of treatment, the culture media was changed and fresh samples were added and incubated overnight. The cells were initially tested for cell viability and cytoxicity using the WST-1 assay (Roche Applied Science). Following the WST-1 assay, the cells were washed in IX PBS and harvested in extraction buffer for melanin isolation and quantification.

[1] = tested on: Melan-a murine melanocytes; experiment: Melanin inhibition assay; assay type: cell-based; conditions: melan-a cells; for reduction in melanin content: 100 μg/ml in 0.36% pentylene glycol:0.036% DMSO, FIG. 3
Procedure: as §1
Cells from each well of the 24 well plate were harvested in cell lysis buffer (1% Triton X 100, 50 mM Tris, 2 mM EDTA, 150 mM NaCl, pH 7.5 supplemented with a complete protease inhibitor cocktail). Cell lysates were centrifuged at 20,000 g for 10 min at 4° C. Protein levels in the supernatant were quantified using a Pierce BCA Protein assay kit (Thermo Scientific Corp). Melanin-containing precipitates were washed in 100 μl of ethanol:ether (1:1) for 10 min at room temperature. The ethanol:ether solution was discarded and the melanin-pellets were dissolved in 200 μl of 2N NaOH in 20% DMSO solution and incubated at 70° C. for 60 min. The resulting melanin extract was analyzed by measuring absorbance at 490 nm. The melanin content in each sample was evaluated by normalizing each sample to the total amount of protein.

SMILES | cytotoxicity to melan-a cells (WST-1) (melan-a cells) | reduction in melanin content [1] | reduction of melanin content ([1]; positive control, FIG. 4 experiment) [%]
CCCCC/C=C\C/C=C\CCCCCCCC(=O)O [linoleic acid] | not cytotoxic | comparatively minor reductions | 
NC(=S)Nc1ccccc1 [phenylthiourea] |  |  | 70
CC/C=C\C/C=C\C/C=C\CCCCCCCC(=O)O [α-linolenic acid] | not cytotoxic | comparatively minor reductions | 
